Data on one molecule can be found in patent US10548902B1, “Telomerase enhancement potential of ecdysterone” (SAMI LABS LIMITED, priority 2018, dated 2020).

The target of this assay is T1, Telomerase (Homo sapiens, UniProt O14746).
T1 construct: endogenous in cells; host or cells: PBMCs isolated from blood, stimulated with 10 μg/ml PHA
Kind of assay: Telomerase activity, TeloTAGGG telomerase PCR ELISA (TRAP assay) in PHA-treated PBMCs. Type of assay: cell-based. The following applies: for % increase in Telomerase activity: PBMCs, 10 μg/ml PHA, 48 hours. How it is done:
The assay was carried out using Telo TAGGG telomerase PCR ELISA kit (Roche). It allows highly specific amplification of telomerase mediated elongation products followed by detection through ELISA. In the first step telomerase adds the telomeric repeats (TTAGGG) tot eh 3′ end of the biotin labeled synthetic P1 primer. In the second step these elongation products are amplified using P2 and P1 primers generating telomerase specific 6 bp increments. PCR product is denatured and hybridized to a digioxigenin labeled telomere repeat specific detection probe. The resultant product is bound to a streptavidin specific miroplate via biotin labeled primer 1. The bound products are detected using anti digioxigenein antibody conjugated to horse radish peroxidase. The enzyme reaction is visualized using […] substrate.
2×10^5 PBMCs isolated from blood were seeded in RPMI 1640 medium in 6 well plates. Cells were treated with 10 μg/ml PHA along with different concentrations of ecdysterone/extracts containing ecdysterone. Cells were incubated in a humidified atmosphere with 5% CO2 for 48 hours. After 48 hours of incubation, cells were harvested and centrifuged at 3000 g for 10 minutes at 4° C. Supernatant was removed and PBS was added and centrifuged again. Pellet was suspended in lysis reagent on ice (TeloTAGGG™ Telomerase PCR ELISA). Suspension was retero pipetted at least thrice and incubated for 20 minutes on ice and centrifuged at 16000 g for 20 minutes at 4° C. TRAP assay followed by ELISA was performed as per manufacturer's instructions (TeloTAGGG™ Telomerase PCR ELISA, Merck).
In general terms: In an ELISA, binding on a coated surface is turned into a signal by an enzyme label.

T1 sequence (O14746 whole entry): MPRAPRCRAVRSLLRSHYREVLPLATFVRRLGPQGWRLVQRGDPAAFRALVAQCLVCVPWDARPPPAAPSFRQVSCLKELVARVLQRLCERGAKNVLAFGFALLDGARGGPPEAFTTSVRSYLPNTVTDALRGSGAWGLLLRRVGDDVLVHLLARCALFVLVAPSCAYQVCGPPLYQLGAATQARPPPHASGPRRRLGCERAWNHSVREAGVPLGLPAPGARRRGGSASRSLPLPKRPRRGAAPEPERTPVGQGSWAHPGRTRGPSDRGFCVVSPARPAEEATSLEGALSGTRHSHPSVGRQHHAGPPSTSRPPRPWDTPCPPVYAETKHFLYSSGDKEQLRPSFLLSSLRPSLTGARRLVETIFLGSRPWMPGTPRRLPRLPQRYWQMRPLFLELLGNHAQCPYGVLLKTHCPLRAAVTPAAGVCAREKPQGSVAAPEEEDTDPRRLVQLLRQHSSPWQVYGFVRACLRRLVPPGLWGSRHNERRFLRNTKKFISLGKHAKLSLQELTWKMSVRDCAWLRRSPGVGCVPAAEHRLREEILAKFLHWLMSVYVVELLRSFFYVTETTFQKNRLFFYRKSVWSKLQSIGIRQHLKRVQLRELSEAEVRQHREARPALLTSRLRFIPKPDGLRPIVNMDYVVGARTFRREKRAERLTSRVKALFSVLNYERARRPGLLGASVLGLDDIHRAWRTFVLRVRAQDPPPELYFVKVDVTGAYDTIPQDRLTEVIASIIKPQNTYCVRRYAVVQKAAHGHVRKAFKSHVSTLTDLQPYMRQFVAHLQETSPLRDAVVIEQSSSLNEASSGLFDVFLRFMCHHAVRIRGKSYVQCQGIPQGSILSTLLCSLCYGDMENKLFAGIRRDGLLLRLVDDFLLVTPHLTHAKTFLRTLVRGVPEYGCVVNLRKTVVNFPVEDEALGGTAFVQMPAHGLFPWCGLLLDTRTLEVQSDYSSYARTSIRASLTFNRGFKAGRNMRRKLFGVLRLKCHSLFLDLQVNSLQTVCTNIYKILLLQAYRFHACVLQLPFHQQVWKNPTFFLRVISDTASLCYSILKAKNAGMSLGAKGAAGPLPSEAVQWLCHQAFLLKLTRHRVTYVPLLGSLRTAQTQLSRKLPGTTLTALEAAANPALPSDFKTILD

Take `CC(C)(O)CC[C@@H](O)[C@](C)(O)[C@H]1CC[C@@]2(O)C3=CC(=O)[C@@H]4C[C@@H](O)[C@@H](O)C[C@]4(C)[C@H]3CC[C@]12C` [Ecdysterone, ecdysterone]: the “increase in telomerase activity (in words)” value (concentrations of 0.062-0.25 μg/ml) was “significant increase”. The “% increase in Telomerase activity” value was 62.1% (ecdysterone 0.062 μg/ml), 64.7% (ecdysterone 0.125 μg/ml), 63.31% (ecdysterone 0.25 μg/ml) and “Nil” (ecdysterone 0.5 μg/ml).
